Like-named read-outs stand apart in the source and are kept apart here. Square brackets hold non-standard residues; d marks the D form. Ends that are not written are not given here. Peptide text beside a SMILES is read from it. d(aIle) = CC[C@H](C)[C@@H](N)C(=O)O

For assay [1], the system named is B. subtilis. In kind it is cell-based, Bacillus subtilis. The note with it: for Growth of B. subtilis in liquid LB medium: OD at 600 nm, FIG. 5B, FIG. 8a. The text has this: (§1) FIG. 5—Activity of YydF18-49 of YydG. (FIG. 5A) Plate growth inhibition assay of B. subtilis in the presence of YydF18-49 or the epimierized product YydFb. (FIG. 5B) Growth of Bacillus subtilis in LB medium in the absence of peptide (□) or in the presence of the YydF18-49 peptide with a free C-terminus: Ac-[…] (SEQ ID No 20) containing either no modification (▪), a D-allo-lle (♦), a D-Val (⋄) or two-epimerized residues: Ac-GLLDESQKLAKVNDLWYF{d-V}KSKENRW{d-I}LGSGH (SEQ ID No 20) (▴). The OD values are the means of 3 independent cultures.
FIG. 8—(A) Growth of B. subtilis in liquid LB medium in the presence of YydF33-49 or YydF33-49DD. B. subtilis was grown in LB medium alone (♦), in the presence of YydF33-49 (□) (SEQ ID NO: 76, top) or YydF33-49DD (▪) (SEQ ID NO: 75, bottom). Each measurement is the mean of three growth experiments with the SD indicated. The epimerized residues are in black. (b) Growth ratio of B. subtilis in presence of YydF18-49 (100 μM) or YydF18-49DD (100, 10 or 1 μM). Ratios were determined by comparison with growth in the absence of peptide. (c) Growth ratio of B. subtilis in presence of YydF33-49 or YydF33-49DD (100, 10, 1, 0.1 or 0.01 μM). Ratios were determined by comparison with bacterial growth in the absence of peptide.
FIG. 9—Growth of B. subtilis in liquid LB medium in the presence of YydF18-49 (□) or after addition (arrow) of the YydF18-49DD (▪) after 3 hours of growth. Each measurement is the mean of three growth experiments with the SD indicated.
FIG. 10—Growth of B. subtilis in liquid LB medium in the presence of […] (a), YydF33_49AA (b) (SEQ ID NO: 66), YydF33_49vv (c) (SEQ ID NO: 67), YydF33_49II (d) (SEQ ID NO: 68), Peptide-SA1 (e) (SEQ ID NO: 62), Peptide-SA2 (f) (SEQ ID NO: 63), Peptide-SE (g) (SEQ ID NO: 64) or Peptide-SP (h) (SEQ ID NO: 65) at 100 μM. In bold, epimerized residues.
(§2) Inhibition Assay on Liquid Medium
(§3) An overnight culture of the bacterial strain to be assayed was freshly inoculated to sterile LB liquid medium. After 4 hours of bacterial growth at 37° C., the medium was diluted to 1/10,000 and inoculated into sterile liquid LB or BHI medium. Peptide solution was added ( 1/100) to a final concentration ranging from 0.01 to 100 μM and OD at 600 nm was recorded continuously using a Tecan microplate reader (Infinite® 200 PRO series).

The test system of a further assay is Streptococcus agalactiae. Briefly: Inhibition assay on liquid medium, Streptococcus agalactiae in BHI medium. In kind it is cell-based. Conditions: peptide at 100 μM; FIG. 12. The procedure: FIG. 12—Growth of Streptococcus agalactiae in liquid BHI medium in the presence of YydF33-49 (a), YydF33_49AA (b) (SEQ ID NO: 66), YydF33_49VV (c) (SEQ ID NO: 67), YydF33_49II (d) (SEQ ID NO: 68), Peptide-SA1 (e) ([…]), Peptide-SA2 (f) (SEQ ID NO: 63), Peptide-SE (g) (SEQ ID NO: 64) or Peptide-SP (h) (SEQ ID NO: 65) at 100 μM. In bold, epimerized residues.
as §2, §3

Assay [2] relates to B. subtilis. As to the kind of experiment: Inhibition assay on solid medium (plate growth inhibition assay). The note with it: 200 μg of peptide spotted, 37° C., FIG. 5A. It counts as cell-based, Bacillus subtilis.
From the text: as §1
Inhibition Assay on Solid Medium
An overnight culture of the bacterial strain to be assayed was freshly inoculated to sterile BHI liquid medium. After 4 hours of bacterial growth at 37° C., the medium was diluted to 1/1000 and inoculated into a soft agarose medium pre-heated at 42° C. The agarose medium containing bacteria was overlaid on a previously jellified sterile BHI agarose layer. 200 μg of peptide was spotted onto the plate and bacterial growth proceeded at 37° C.

The test system of the next assay is Enterococcus faecalis. Briefly: Inhibition assay on liquid medium, Enterococcus faecalis in BHI medium. In kind it is cell-based. Conditions: peptide at 100 μM; FIG. 11. The procedure:
FIG. 11—Growth of Enterococcus faecalis in liquid BHI medium in the presence of YydF33-49 (a), YydF33_49AA (b) (SEQ ID NO: 66), YydF33_49VV (c) (SEQ ID NO: 67), YydF33_49II (d) (SEQ ID NO: 68), Peptide-SA1 (e) (SEQ ID NO: 62), Peptide-SA2 (f) (SEQ ID NO: 63), Peptide-SE (g) (SEQ ID NO: 64) or Peptide-SP (h) (SEQ ID NO: 65) at 100 μM. In bold, epimerized residues.
as §2, §3

For `CC[C@H](C)[C@@H](NC(=O)[C@H](Cc1c[nH]c2ccccc12)NC(=O)[C@H](CCCNC(=N)N)NC(=O)[C@H](CC(N)=O)NC(=O)[C@H](CCC(=O)O)NC(=O)[C@H](CCCCN)NC(=O)[C@H](CO)NC(=O)[C@H](CCCCN)NC(=O)[C@H](NC(=O)[C@H](Cc1ccccc1)NC(=O)[C@H](Cc1ccc(O)cc1)NC(=O)[C@@H](N)Cc1c[nH]c2ccccc12)C(C)C)C(=O)N[C@@H](CC(C)C)C(=O)NCC(=O)N[C@@H](CO)C(=O)NCC(=O)N[C@@H](Cc1c[nH]cn1)C(=O)O` [YydF33-49DD] (H-WYF[dV]KSKENRW[d(aIle)]LGSGH-OH; N-terminus and C-terminus assumed), in the assay on B. subtilis [1], the MIC was below 1 µM and the “Growth of B. subtilis in liquid LB medium” value (“Growth … in liquid LB medium” for short) was “inhibit bacterial growth”. Also, the “Growth of Streptococcus agalactiae in liquid BHI medium” value (shortened to “Growth of Streptococcus agalactiae”) in the assay on Streptococcus agalactiae is given as “inhibited”.
For the compound “Ac-GLLDESQKLAKVNDLWYFVKSKENRWILGSGH [YydF18-49]”, in the assay on B. subtilis [1] (B. subtilis, liquid LB medium, peptide added after 3 hours of growth, FIG. 9), the “cell density after addition of peptide at mid-exponential phase” value is “a clear slow down followed by a decrease of the cell density”. Also, the “inhibition growth of B. subtilis (plate growth inhibition assay)” value in the assay with B. subtilis [2] was “devoid of activity”.
“Ac-GLLDESQKLAKVNDLWYF{d-V}KSKENRW{d-I}LGSGH [YydF18-49DD]”: the “Growth … in liquid LB medium” value with B. subtilis [1] was “bacterial growth inhibition”; with B. subtilis [1] (listed as epimerized peptide), “strong and persistent inhibition”. In the assay with B. subtilis [2], the “inhibition growth of B. subtilis (plate growth inhibition assay)” value is recorded as “strong inhibition growth”.
For WYFAKSKENRWALGSGH (YydF33_49AA), the “Growth of Streptococcus agalactiae” value in the assay on Streptococcus agalactiae is “inhibited”. The “Growth of Enterococcus faecalis in liquid BHI medium” value (“Growth of Enterococcus faecalis” below) with Enterococcus faecalis is “totally inhibited”.
Turning to “WYFIKSKENRWILGSGH (also: epimerized D-residues, positions not given here) [YydF33-49II]”, in the assay on Streptococcus agalactiae, the “Growth of Streptococcus agalactiae” value is on record as “not”.
Regarding WYFVKSKENRWILGSGH [YydF33-49], in the assay on B. subtilis [1], the “Growth … in liquid LB medium” value is “Only the YYdF33-49DD peptide proved to inhibit bacterial growth”.
Turning to “WYFVKSKENRWVLGSGH (also: epimerized D-residues, positions not given here) [YydF33-49VV]”, the “Growth of Streptococcus agalactiae” value in the assay on Streptococcus agalactiae is listed as “inhibited”.
As for WYFVKSKQNRWVVGSGH (Peptide-SE), the “Growth of Streptococcus agalactiae” value in the assay on Streptococcus agalactiae is listed as “inhibitors”. For the same compound, in the assay on Enterococcus faecalis, the “Growth of Enterococcus faecalis” value is recorded as “totally inhibited”.
The corresponding values for WYFVRNSKNRWVAGSAH (Peptide-SA2) are “inhibitors” and “significantly delayed”.
Take WYFVRSSKNRWVAGSAH (Peptide-SA1): the “Growth of Streptococcus agalactiae” value with Streptococcus agalactiae is “inhibitors”. Besides, in the assay on Enterococcus faecalis, the “Growth of Enterococcus faecalis” value was “significantly delayed”.

These data come from patent US10981957B2, “Peptides having antimicrobial activity and new enzyme capable of converting L-configured residue in D-configured amino acid in a peptide” (INSTITUT NATIONAL DE RECHERCHE POUR L'AGRICULTURE, …, priority 2015, dated 2021).
